What was measured:
[1] = Reductive release of drug from disulfide conjugate (DTT or glutathione, TLC); assay type: physicochemical; details: organic phase
Experimental: III Release of UC781 from mPEG-S—S-UC781. […] Then, 0.5 ml of 6 mM dithiothreitol (DTT) in DCM was added to the conjugate solution.
After 2 hours at room temperature, the reaction mixture was taken to dryness by speed vacuum.
In an alternate procedure to the above, cysteamine may be used in place of 1-amino-2-methyl-2-propanethiol, which produces a UC781 conjugate (PEG-CO—NH—CH2—CH2—S—S—UC781) with less sterically hindered thiol groups and therefore with a ˜100-fold faster release under reducing conditions.

[2] = Kinetics following intravenous injection of PEG-S-S-UC781 in rabbits; assay type: in vivo; details: rabbit
Experimental: The wavelength for detection of UC781 is 290 nm.
An in-vivo experiment was done in duplicate in rabbits (about 3.6 kg, New Zealand white, female), performed according to protocol #I99-054 approved by the IACUC of UMDNJ-Robert Wood Johnson Medical School. […] Blood samples were drawn from the auricular artery of the opposite ear prior to and at predetermined time points after injection. Immediately after the blood was drawn, 1 ml was mixed with 2 ml of acetonitrile, vortexed, kept on ice for 10 min and then centrifuged at 1000×g for 10 min at 4° C. The supernatant was collected and analyzed by reverse phase HPLC, as described above. Blood levels were determined with time by HPLC with and without the DTT reductive cleavage step (FIG. 7).

HIV-RT = HIV-RT (Human immunodeficiency virus type 1 group M subtype B, UniProt P03366); test: Reverse transcriptase (RT) inhibition assay; assay type: biochemical; details: for UC781 concentration found by RT assay: predicted 30 nM
Experimental: UC781 standard solutions were prepared in DMSO. The stock solution of HIV-RT (13.5 Units/μl) was diluted to 25 mUnits/μl in buffer comprising 50 mM Tris-HCl, pH 8.0, 1 mM DTT, 0.01% bovine serum albumin (BSA). Each assay tube contained 40 μl of a solution comprising 50 mM Tris-HCl, pH 8.0, 4 mM DTT, 12.4 mM MgCl2, 50 mM KCl, 0.01% BSA, 10 μg/ml poly(A), 0.01 mM dTTP and […] [α-^32P]dTTP, 2 μl of diluted RT and 3 μl of sample dissolved in DMSO. Samples were incubated at 37° C. for 30 minutes. The polymerization reaction was stopped by adding 0.15 mg/ml of salmon sperm DNA and chilling on ice. An aliquot (20 μl) of each reaction mixture was spotted onto square stamped GF/C filter paper (12.5 cm in diameter) presoaked with 10% trichloroacetic acid (TCA). After the spots were dry, the paper was rinsed with 50 ml of ice cold 10% TCA twice, 50 ml of ice cold water three times and then once with 25 ml of ice cold 95% ethanol in a Buchner funnel. The paper was dried, cut into squares and each square was counted in 4 ml of LSC cocktail (National Diagnostics).
The reverse transcriptase inhibition (RT) assay was used to confirm that the compound released in blood is truly active UC781. […] As a control, authentic UC781 was run on the HPLC column and the peak was collected at 24.2 minutes. […] An aliquot of each HPLC fraction, providing a predicted concentration of 30 nM in the RT assay, was analyzed.

in vitro = details: rabbit
[3] = Kinetics following intramuscular injection of PEG-S-S-UC781 in mice; assay type: in vivo
Experimental: An in-vivo experiment was done twice in mice (about 25 g, […]), performed according to protocol #I00-001, approved by the IACUC. […] Twenty mg, equivalent to 0.5 mg of UC781, was dissolved in 1 ml of PBS and injected into the leg muscle. At each time point, a mouse was euthanized, blood was collected and the injected muscle was removed. The blood samples were treated with 2 volumes of acetonitrile as described above. The tissue samples were homogenized with 1 ml of PBS and then treated with 2 volumes of acetonitrile, as above. The samples were then analyzed by reverse phase HPLC. […] Recovery and extraction efficiency from the muscle was tested by injection into the excised muscle from a freshly euthanized mouse.

## O=c1[nH]c(=S)ccn1[C@@H]1O[C@H](CO)[C@@H](O)[C@H]1O [4-thiouridine, 4-Thiouridine]
[1]
  release of drug from conjugate by DTT: reductively released

## CC(C)=CCOc1cc(NC(=S)c2ccoc2C)ccc1Cl [UC781, N-[4-chloro-3-(3-methyl-2-butenyloxy)phenyl]-2-methyl-3-furancarbothioamide]
[2]; EDTA-treated blood, duplicate sample
  UC781 concentration in plasma higher than in matched whole blood: about 10%
[2]; after iv PEG-S-S-UC781
  half-life of UC781 in the bloodstream: several minutes
HIV-RT; HPLC peak fraction of rabbit blood 5 min after iv PEG-S-S-UC781
  UC781 concentration found by RT assay: 26 nM
HIV-RT; RT assay, blood versus standard
  activity of compound recovered from blood: fully active
HIV-RT; authentic UC781 standard HPLC fraction
  UC781 concentration found by RT assay: 27 nM
In vitro
  recovery at 10 min, 10 µg/mL: 113%
[3]; mouse injected muscle, after 1 hour
  level of UC781 in tissue samples: more than 10%
[3]; mouse, im, HPLC
  UC781 in blood samples: below the detection limit

Reference: US6468522B1, “Controlled release of thioamide moiety-containing therapeutic agents” (priority 1999, dated 2002)
